# Test results as given in patent publication US12514845B2, “Ionic-liquid-based formulations for the prevention or treatment of neurological diseases” (Universidade De Aveiro, priority 2022, dated 2026).
# Like-named read-outs stand apart in the source and are kept apart here.
# What was measured:
# [1] = Decomposition temperature by thermogravimetric analysis (TGA); format: physicochemical; settings: TGA (FIG. 5)
# Procedure: In an embodiment, the decomposition temperature of [Chol]2[N1(4)inh]+N1(4)inh was evaluated by thermogravimetric analysis (TGA) and the results disclose that the mixture is thermally stable up to 200° C., as disclosed in FIG. 5.
# In an embodiment, the decomposition temperature was determined by thermogravimetric analysis (TGA).
# [2] = target: T1, Nox4 (Homo sapiens, UniProt Q9NPH5); settings: Bae et al. 2016; cited from earlier work
# T1 construct: host or cells: drosophila
# T1 sequence (Q9NPH5 1-578): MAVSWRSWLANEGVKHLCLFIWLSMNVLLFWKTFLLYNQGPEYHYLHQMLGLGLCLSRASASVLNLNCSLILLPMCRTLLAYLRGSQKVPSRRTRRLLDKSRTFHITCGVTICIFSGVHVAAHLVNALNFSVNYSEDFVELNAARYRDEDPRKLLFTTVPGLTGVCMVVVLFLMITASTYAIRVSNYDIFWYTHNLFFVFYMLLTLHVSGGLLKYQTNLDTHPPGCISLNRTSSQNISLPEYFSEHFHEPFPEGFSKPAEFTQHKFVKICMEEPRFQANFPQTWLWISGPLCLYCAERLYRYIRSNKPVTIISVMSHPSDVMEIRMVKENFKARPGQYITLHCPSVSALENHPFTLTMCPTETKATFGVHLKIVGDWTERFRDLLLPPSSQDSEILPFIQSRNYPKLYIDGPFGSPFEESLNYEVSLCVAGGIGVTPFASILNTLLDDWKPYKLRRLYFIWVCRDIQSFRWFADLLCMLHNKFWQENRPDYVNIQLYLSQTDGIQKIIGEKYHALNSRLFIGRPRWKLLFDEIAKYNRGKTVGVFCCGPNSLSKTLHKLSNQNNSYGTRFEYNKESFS
# [3] = system: dopaminergic neurons; settings: experimental models of PD; Cristóvão et al. 2019; cited from earlier work
# [4] = target: T2, Nox1 (Homo sapiens, UniProt Q9Y5S8); settings: Bae et al. 2016; cited from earlier work
# T2 construct: host or cells: drosophila
# T2 sequence (Q9Y5S8 1-564): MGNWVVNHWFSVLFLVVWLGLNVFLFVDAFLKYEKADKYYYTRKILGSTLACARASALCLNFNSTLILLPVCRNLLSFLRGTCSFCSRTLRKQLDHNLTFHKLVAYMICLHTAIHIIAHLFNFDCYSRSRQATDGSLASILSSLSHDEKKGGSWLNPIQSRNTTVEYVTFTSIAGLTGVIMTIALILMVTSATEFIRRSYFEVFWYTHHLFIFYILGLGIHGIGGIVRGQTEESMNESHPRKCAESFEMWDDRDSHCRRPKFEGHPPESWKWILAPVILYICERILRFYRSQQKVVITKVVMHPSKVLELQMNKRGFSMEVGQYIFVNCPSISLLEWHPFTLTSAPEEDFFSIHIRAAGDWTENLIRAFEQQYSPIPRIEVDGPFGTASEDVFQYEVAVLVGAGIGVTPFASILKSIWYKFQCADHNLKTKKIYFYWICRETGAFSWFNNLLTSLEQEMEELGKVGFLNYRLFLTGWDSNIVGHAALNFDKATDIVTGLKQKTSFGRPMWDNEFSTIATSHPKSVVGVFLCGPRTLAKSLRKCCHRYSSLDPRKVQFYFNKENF
# [5] = Solubility in water and PBS (saturation, UV-spectroscopy); format: physicochemical; settings: thermodynamic from solid, 37° C., minimum 72 h
# Procedure: In an embodiment, the solutes N1(4)inh and mixture comprising [Chol]2[N1(4)inh]+N1(4)inh were added in excess to a fixed volume (500 μL) of water and PBS solution. These mixtures were incubated at 37° C., under constant agitation 1150 rpm and for a minimum of 72 h, using an Eppendorf Thermomixer Comfort equipment. Throughout this process, solute was added to the mixture, whenever necessary, i.e., until the solution saturation. All samples were filtered using syringe filters ([…]) to remove possible suspended solid particles.
# (§1) In an embodiment, the quantification of N1(4)inh and [Chol]2[N1(4)inh] was carried by UV-spectroscopy, using a UV-spectrophotometry (SYNERGY|HT microplate reader, BioTek) at a wavelength of 416 nm and 480 nm, respectively. The interference of the PBS with the quantification method was also ascertained and blank control samples were always used.
# as §1, with “embodiment, solutes (N1(4)inh and [Chol]2[N1(4)inh]+N1(4)inh) were added in excess to a fixed volume (500 μL) of water and PBS solution. […] The” for “embodiment, the”, “and [Chol]2[N1(4)inh]+N1(4)inh” for “and [Chol]2[N1(4)inh]”
structure (smiles),measurement,setting,value
"CN1C(=S)N(C2CCCCC2)C(=O)C1=Cc1ccc(O)cc1O [N1(4)inh, 3-cyclohexyl-5-(2,4-dihydroxybenzylidene)-1-methyl-2-thiohydantoin]",decomposition temperature (thermal stability),[1],200 °C
same,inhibition of Nox4,[2],partial inhibitor
same,neuroprotective potential,[3],high neuroprotective potential
same,inhibition of Nox1,[4],effective inhibitor
same,solubility,"[5]; aqueous buffer, PBS, read-out: solubility in PBS",8 ± 1 µg/mL
same,solubility,"[5]; water, read-out: solubility in water",11 ± 2 µg/mL
